# Patent publication US20050153304A1, “Multivariate profiling of complex biological regulatory pathways” (Government of the USA, as represented by the secretary, …, priority 2003, published 2005)
# What was measured:
# NF-kappa B pathway = experiment: Luciferase reporter transfection in mitogen-stimulated Jurkat T-cells, principal component analysis of mitogen profiles; assay type: cell-based, human; details: co-stimulation with anti-CD28, FIG. 4 and FIG. 6
# Procedure: (§1) A human acute lymphoblastic T-cell leukemia cell line (Jurkat) was individually electroporated with 5 ug of a luciferase reporter plasmids driven by the interleukin 2 (IL-2) promoter, the NFAT element of the IL-2 promoter, the CD28RE-AP1 element of the IL-2 promoter, a consensus AP-1 element, a consensus NF-kappa B element, a consensus CRE element and the co-transfection of a Gal4 binding site or upstream activation sequence (UAS) driving a luciferase reporter in combination with either a full length Gal4-p300 fusion (FL) or a N-terminal domain fusion of p300 (amino acids 1-743). Electroporation was performed in a 96 well format with a BTX 96-well gold electrode. Cells were electroporated at 10 millions cells per well with each experiment repeated in triplicates. Following electroporation cells were stimulated with various combination of T-cell mitogens (see Table 1). Cells were harvested 5 hours after stimulation and assayed for luciferase activity by a 96 well luminometer. Data were normalized first for fold activation for each experiment and then inputted into an activation matrix where the data were normalized to percent maximum stimulation. […]
# [1] = system: Jurkat T-cells, 8 promoter elements; experiment: Principal component analysis of vector differences between mitogen profiles in the absence and presence of drug (8 promoter elements); assay type: cell-based, human; details: subtraction vectors versus control mitogen profiles, FIG. 5
# Procedure: The mitogen activation profiles under control conditions shown in red FIG. 4 were used to calculate subtraction vectors for each profile in the presence of a drug treatment. These vectors were then analyzed by PCA to show similarities and differences in targeting.
# as §1, with “luminometer.” for “luminometer. Data were normalized first for fold activation for each experiment and then inputted into an activation matrix where the data were normalized to percent maximum stimulation.”
substance,measurement,setting,value
"IGF-1: insulin-like growth factor one, a peptide growth factor",effect on NF-kappa B pathway in activated T-cells,NF-kappa B pathway,synergies with anti-CD28 stimulation in activated T-cells to upregulate the NF-kappa B pathway
same,drug targeting profile (similarity of pathways targeted),[1],appear to target the same pathway
